CSCCC(NC(C)=O)C(=O)O (racemic)
solubility (mole fraction)
Settings | 283.15 K | 293.15 K | 303.15 K | 313.15 K | 323.15 K
in 1,4-dioxane | 0.0227 | 0.0428 | 0.073 | 0.108 | 0.167
in 2-butanone | 0.00843 | 0.0131 | 0.0207 | 0.0327 | 0.0568
in acetone | 0.0138 | 0.0215 | 0.037 | 0.0587 | 0.0959
in acetonitrile | 0.00292 | 0.00491 | 0.00877 | 0.016 | 0.0326
in dichloromethane | 0.00024 | 0.00036 | 0.00052 | 0.0007 | 0.00093
in ethanol | 0.0453 | 0.0626 | 0.0954 | 0.135 | 0.184
in ethyl acetate | 0.00265 | 0.00429 | 0.00641 | 0.00936 | 0.0153
in isobutanol | 0.0229 | 0.0345 | 0.0531 | 0.0779 | 0.114
in isopropanol | 0.029 | 0.0436 | 0.066 | 0.0984 | 0.14
in methanol | 0.0794 | 0.105 | 0.141 | 0.187 | 0.262
in methyl acetate | 0.00352 | 0.00525 | 0.0084 | 0.0139 | 0.0243
in n-butanol | 0.0247 | 0.0393 | 0.0591 | 0.0888 | 0.127
in n-pentanol | 0.0215 | 0.0309 | 0.0465 | 0.0684 | 0.103
in n-propanol | 0.031 | 0.0511 | 0.077 | 0.115 | 0.15
in sec-butanol | 0.0236 | 0.0375 | 0.0568 | 0.0839 | 0.121
in water | 0.00589 | 0.008 | 0.0136 | 0.0231 | 0.0543

— BigSolDB 2.1
